In the supplement of paper PMC10307832:

Experiments:
Experiment in all cases: relative viability (nuclei count vs DMSO), 5 days (fraction); higher = more cells survive
[1] = compound: C1/C(=C\C2=CC=CS2)/C(=O)/C(=C/C3=CC=CS3)/C1 + Cc1nc(NC(=O)N2CCC[C@H]2C(N)=O)sc1-c1ccnc(C(C)(C)C(F)(F)F)c1 [Alpelisib] (partner 2 µM)
Summary of the method: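 A single step with final 0.05% Triton X-100, 1% formaldehyde and 1 ug/ml Hoechst fixed the cells and stained nuclei 5 days after treatment. Lung cancer cell lines in 1536-well plates had been treated by pin tool the day after seeding with one drug alone or a fixed anchor-drug dose plus five library-drug doses (not always all listed) in √10 steps, and nuclei were counted on 4× images. Relative viability is the ratio of nuclei in treated wells to nuclei in vehicle wells, taken as the median of duplicate plates.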

Lestaurtinib = compound: C[C@]12O[C@H](C[C@]1(O)CO)n1c3ccccc3c3c4c(c5c6ccccc6n2c5c31)CNC4=O [Lestaurtinib]
Summary of the method: (§1)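 Only plates meeting two conditions passed: control CV below 25% and at least one doubling. Lung cancer cell lines, kept overnight at 37 °C in 1536-well plates, were pinned with five library-drug doses (not always all listed) √10 apart on vehicle-anchored plates and grown 5 days without medium change. A one-step fix, permeabilisation and Hoechst stain preceded 4× imaging and MetaXpress nuclear counting. Viability equals treated-well nuclei divided by vehicle-well nuclei, as the median over plates.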

[2] = compound: C1/C(=C\C2=CC=CS2)/C(=O)/C(=C/C3=CC=CS3)/C1
Summary of the method: as §1

TPCA-1 = compound: C1=CC(=CC=C1C2=CC(=C(S2)NC(=O)N)C(=O)N)F [TPCA-1]
Summary of the method: as §1

NCI-H2085
relative viability ([1]; first compound 0.2 µM): 1.22 | relative viability ([1]; first compound 0.6325 µM): 1.02 | relative viability ([1]; first compound 2 µM): 1.04 | relative viability ([1]; first compound 6.325 µM): 0.785 | relative viability ([1]; first compound 20 µM): 0.97 | relative viability (Lestaurtinib; 0.005 µM): 0.989 | relative viability (Lestaurtinib; 0.01581 µM): 0.99 | relative viability (Lestaurtinib; 0.05 µM): 0.996 | relative viability (Lestaurtinib; 0.1581 µM): 1.01 | relative viability (Lestaurtinib; 0.5 µM): 0.786 | relative viability ([2]; 0.2 µM): 1.08 | relative viability ([2]; 0.6325 µM): 1.01 | relative viability ([2]; 2 µM): 1.01 | relative viability ([2]; 6.325 µM): 0.898 | relative viability ([2]; 20 µM): 0.961 | relative viability (TPCA-1; 0.04 µM): 0.989 | relative viability (TPCA-1; 0.1265 µM): 0.989 | relative viability (TPCA-1; 0.4 µM): 0.988 | relative viability (TPCA-1; 1.265 µM): 0.897 | relative viability (TPCA-1; 4 µM): 0.875

NCI-H358
relative viability ([1]; first compound 0.2 µM): 1.11 | relative viability ([1]; first compound 0.6325 µM): 0.799 | relative viability ([1]; first compound 2 µM): 0.861 | relative viability ([1]; first compound 6.325 µM): 0.668 | relative viability ([1]; first compound 20 µM): 0.88 | relative viability (Lestaurtinib; 0.005 µM): 0.839 | relative viability (Lestaurtinib; 0.01581 µM): 0.748 | relative viability (Lestaurtinib; 0.05 µM): 0.493 | relative viability (Lestaurtinib; 0.1581 µM): 0.397 | relative viability (Lestaurtinib; 0.5 µM): 0.207 | relative viability ([2]; 0.2 µM): 1.09 | relative viability ([2]; 0.6325 µM): 0.915 | relative viability ([2]; 2 µM): 0.963 | relative viability ([2]; 6.325 µM): 0.754 | relative viability ([2]; 20 µM): 0.933 | relative viability (TPCA-1; 0.04 µM): 1.34 | relative viability (TPCA-1; 0.1265 µM): 0.832 | relative viability (TPCA-1; 0.4 µM): 0.984 | relative viability (TPCA-1; 1.265 µM): 0.767 | relative viability (TPCA-1; 4 µM): 0.401

NCI-H1623
relative viability (Lestaurtinib; 0.005 µM): 0.978 | relative viability (Lestaurtinib; 0.01581 µM): 0.962 | relative viability (Lestaurtinib; 0.05 µM): 0.931 | relative viability (Lestaurtinib; 0.1581 µM): 0.884 | relative viability (Lestaurtinib; 0.5 µM): 0.813 | relative viability ([2]; 0.2 µM): 0.977 | relative viability ([2]; 0.6325 µM): 0.865 | relative viability ([2]; 2 µM): 1.1 | relative viability ([2]; 6.325 µM): 0.903 | relative viability ([2]; 20 µM): 0.911 | relative viability (TPCA-1; 0.04 µM): 1.13 | relative viability (TPCA-1; 0.1265 µM): 0.879 | relative viability (TPCA-1; 0.4 µM): 0.962 | relative viability (TPCA-1; 1.265 µM): 1.01 | relative viability (TPCA-1; 4 µM): 0.763

SW 900
relative viability (Lestaurtinib; 0.005 µM): 0.916 | relative viability (Lestaurtinib; 0.01581 µM): 1.08 | relative viability (Lestaurtinib; 0.05 µM): 0.966 | relative viability (Lestaurtinib; 0.1581 µM): 1.06 | relative viability (Lestaurtinib; 0.5 µM): 0.885 | relative viability ([2]; 0.2 µM): 0.9 | relative viability ([2]; 0.6325 µM): 0.947 | relative viability ([2]; 2 µM): 0.87 | relative viability ([2]; 6.325 µM): 0.874 | relative viability ([2]; 20 µM): 0.864 | relative viability (TPCA-1; 0.04 µM): 0.663 | relative viability (TPCA-1; 0.1265 µM): 0.719 | relative viability (TPCA-1; 0.4 µM): 0.922 | relative viability (TPCA-1; 1.265 µM): 0.775 | relative viability (TPCA-1; 4 µM): 0.654

NCI-H1650
relative viability (Lestaurtinib; 0.005 µM): 0.976 | relative viability (Lestaurtinib; 0.01581 µM): 1.09 | relative viability (Lestaurtinib; 0.05 µM): 0.961 | relative viability (Lestaurtinib; 0.1581 µM): 1.19 | relative viability (Lestaurtinib; 0.5 µM): 0.415 | relative viability ([2]; 0.2 µM): 0.874 | relative viability ([2]; 0.6325 µM): 0.908 | relative viability ([2]; 2 µM): 1.01 | relative viability ([2]; 6.325 µM): 0.867 | relative viability ([2]; 20 µM): 0.875 | relative viability (TPCA-1; 0.04 µM): 1.03 | relative viability (TPCA-1; 0.1265 µM): 0.851 | relative viability (TPCA-1; 0.4 µM): 1.06 | relative viability (TPCA-1; 1.265 µM): 0.955 | relative viability (TPCA-1; 4 µM): 0.852

NCI-H2342
relative viability (Lestaurtinib; 0.005 µM): 0.947 | relative viability (Lestaurtinib; 0.01581 µM): 1.04 | relative viability (Lestaurtinib; 0.05 µM): 0.863 | relative viability (Lestaurtinib; 0.1581 µM): 1.09 | relative viability (Lestaurtinib; 0.5 µM): 1.03 | relative viability ([2]; 0.2 µM): 1.01 | relative viability ([2]; 0.6325 µM): 0.951 | relative viability ([2]; 2 µM): 1.06 | relative viability ([2]; 6.325 µM): 0.829 | relative viability ([2]; 20 µM): 0.954 | relative viability (TPCA-1; 0.04 µM): 1 | relative viability (TPCA-1; 0.1265 µM): 0.961 | relative viability (TPCA-1; 0.4 µM): 1.05 | relative viability (TPCA-1; 1.265 µM): 0.956 | relative viability (TPCA-1; 4 µM): 0.919

ChaGo-K-1
relative viability (Lestaurtinib; 0.005 µM): 1 | relative viability (Lestaurtinib; 0.01581 µM): 1.08 | relative viability (Lestaurtinib; 0.05 µM): 0.906 | relative viability (Lestaurtinib; 0.1581 µM): 1.01 | relative viability (Lestaurtinib; 0.5 µM): 0.437 | relative viability ([2]; 0.2 µM): 0.997 | relative viability ([2]; 0.6325 µM): 1.02 | relative viability ([2]; 2 µM): 1.02 | relative viability ([2]; 6.325 µM): 0.787 | relative viability ([2]; 20 µM): 0.535 | relative viability (TPCA-1; 0.04 µM): 1.09 | relative viability (TPCA-1; 0.1265 µM): 0.927 | relative viability (TPCA-1; 0.4 µM): 0.965 | relative viability (TPCA-1; 1.265 µM): 0.925 | relative viability (TPCA-1; 4 µM): 0.637

NCI-H1648
relative viability (Lestaurtinib; 0.005 µM): 0.688 | relative viability (Lestaurtinib; 0.01581 µM): 0.993 | relative viability (Lestaurtinib; 0.05 µM): 0.691 | relative viability (Lestaurtinib; 0.1581 µM): 1.17 | relative viability (Lestaurtinib; 0.5 µM): 0.879 | relative viability ([2]; 0.2 µM): 0.934 | relative viability ([2]; 0.6325 µM): 0.875 | relative viability ([2]; 2 µM): 0.876 | relative viability ([2]; 6.325 µM): 0.728 | relative viability ([2]; 20 µM): 0.739 | relative viability (TPCA-1; 0.04 µM): 1.1 | relative viability (TPCA-1; 0.1265 µM): 0.788 | relative viability (TPCA-1; 0.4 µM): 1.03 | relative viability (TPCA-1; 1.265 µM): 0.824 | relative viability (TPCA-1; 4 µM): 0.993

NCI-H522
relative viability (Lestaurtinib; 0.005 µM): 1.03 | relative viability (Lestaurtinib; 0.01581 µM): 0.963 | relative viability (Lestaurtinib; 0.05 µM): 0.877 | relative viability (Lestaurtinib; 0.1581 µM): 0.877 | relative viability (Lestaurtinib; 0.5 µM): 0.604 | relative viability ([2]; 0.2 µM): 1.12 | relative viability ([2]; 0.6325 µM): 0.967 | relative viability ([2]; 2 µM): 1.06 | relative viability ([2]; 6.325 µM): 0.978 | relative viability ([2]; 20 µM): 0.922 | relative viability (TPCA-1; 0.04 µM): 0.928 | relative viability (TPCA-1; 0.1265 µM): 0.916 | relative viability (TPCA-1; 0.4 µM): 1.18 | relative viability (TPCA-1; 1.265 µM): 1.07 | relative viability (TPCA-1; 4 µM): 0.844
